This note sets out measurements from patent publication US10010527B2, “Active metabolite of 1-[(2-bromophenyl)sulfonyl]-5-methoxy-3-[(4-methyl-1-piperazinyl)methyl]-1H-indole dimesylate monohydrate and dimesylate dihydrate salt of active metabolite” (SUVEN LIFE SCIENCES LIMITED, priority 2014, dated 2018).

The assay concerns rats. As to the kind of experiment: Radial arm maze (reversal of scopolamine induced amnesia). It counts as in vivo, rat. As to conditions: p.o. The text has this:
Example 4: Radial Arm Maze
The cognition enhancing properties of formula (I) and formula (II) of this invention were estimated by using this model.
Radial arm maze consists of a central hub of 45 centimeter diameter. Each arm was of dimension 42.5×15×24 centimeter. The maze was elevated to a height of 1 meter above the ground. The animals were placed on a restricted diet until they reached approximately 85% of their free feeding weight. During this diet restriction period animals were habituated to the novel feed (pellets). Once the rats reached approximately 85% of their free feeding weight rats were habituated to the maze on the 1st and 2nd day. […] Animals were randomized on day 2. On the subsequent days the treatment was given as per the allotment. Each animal was introduced into the maze individually for a period of 10 minutes. The arms were baited only once and the animal had to learn the rule that repeated arm entries would not be rewarded. The trial ended once the rat had visited 16 arms or 10 minutes were over or all the pellets were eaten. The arm entries were recorded using the software.

For the compound `COc1ccc2c(c1)c(CN1CCNCC1)cn2S(=O)(=O)c1ccccc1Br` [Example 1, 1-[(2-Bromophenyl)sulfonyl]-5-methoxy-3-[(1-piperazinyl)methyl]-1H-indole], the “Reversal of Scopolamine Induced amnesia - Effective dose range” value is recorded as 10-20 mg/kg, p.o. As for `COc1ccc2c(c1)c(CN1CCNCC1)cn2S(=O)(=O)c1ccccc1Br` [Example 2, 1-[(2-Bromophenyl)sulfonyl]-5-methoxy-3-[(1-piperazinyl)methyl]-1H-indole dimesylate dihydrate], the “Reversal of Scopolamine Induced amnesia - Effective dose range” value (dimesylate dihydrate) is on record as 5-20 mg/kg, p.o.
